Results on 1 molecule are retold here after patent publication US20120077738A1, “COMPOSITIONS AND METHODS FOR […] SUSCEPTIBILITY TO ANTIVIRAL AGENTS” (priority 2010, published 2012).

In the assay the test system is genotype 1 HCV. Description: HCV outcome after liver transplant in HIV/HCV coinfected patients by calcineurin inhibitor. The class given is in vivo, human. From the text: Calcineurin Inhibition Use posttransplant in HIV/HCV infected patients. Eighty HIV/HCV coinfected patients received liver transplants as part of the HIV and transplantation trial from 2003-2009. Of these patients 61 were infected with genotype 1 HCV and received only a liver (not liver+kidney) and are further described here and in the corresponding data shown in FIGS. 1-14.

For the molecule `C=CC[C@@H]1/C=C(\C)C[C@H](C)C[C@H](OC)[C@H]2O[C@@](O)(C(=O)C(=O)N3CCCC[C@H]3C(=O)O[C@H](/C(C)=C/[C@@H]3CC[C@@H](O)[C@H](OC)C3)[C@H](C)[C@@H](O)CC1=O)[C@H](C)C[C@@H]2OC` [Tacrolimus], the failed interferon therapy (by calcineurin inhibitor started immediately post transplant, two of the CsA group had switched to Tacrolimus) stood at 13 patients. Further, under “patients on Tacrolimus immediately post transplant who received interferon based therapy”, the “Sustained Virologic Response (negative HCV PCR 6 months or more after HCV therapy was stopped)” value is listed as “one patient out of these 14”.
